Source: US9322066B2, “Predictors for cancer treatment” (priority 2011, dated 2016)

System: relapsed or refractory, rituximab-naive or -sensitive follicular B-cell NHL
Assay: Progression-free survival (PFS), Vc-R vs rituximab study, by biomarker
Assay type: in vivo, human
Source text: Non-Hodgkin lymphoma (NHL) encompasses several unique malignant lymphoid disease entities that vary in clinical behavior, morphologic appearance, immunologic, and molecular phenotype. […] A randomized, open-label, active-controlled, multicenter, multinational, prospective study to compare the efficacy and safety of the combination of bortezomib and rituximab (Vc-R) to single-agent rituximab in subjects who have relapsed or refractory, rituximab-naive or -sensitive follicular B-cell NHL was performed.
Subjects were centrally randomized to Treatment Groups A (Vc-R) or B (rituximab) in a 1:1 ratio taking into account the following stratification factors: • Follicular Lymphoma International Prognostic Index (FLIPI) score (low [0 or 1 factor], intermediate [2 factors], high [≧3 factors]); • Prior rituximab therapy (yes, no); • Time since last dose of anti-lymphoma therapy (≦1 year, >1 year); • Region (United States/Canada, European Union, Rest of World).
The following clinical endpoints were included in the analysis within each treatment group and an overall comparison was made with the biomarker-related endpoints: Progression-free survival, defined as the interval between the date of randomization and the date of progressive disease (PD) or death, whichever is first reported in the ITT population; overall survival; overall response rate (complete response [CR]+CR unconfirmed [CRu]+partial response [PR]); overall CR rate (CR+CRu); duration of response; time to next anti-lymphoma therapy; and treatment free interval.
For single-marker association analyses and pair-wise comparisons, a log rank test and Cox proportional hazard model was utilized for assessments of PFS, TTP, and OS between the treatment groups. Kaplan-Meier curves were utilized to estimate the distribution differences between groups in the time-to-event analyses. Comparison of the response rates between the treatment groups was conducted using the Fishers exact test. Single-marker association analyses were stratified by the covariates.
For pair-wise comparison analysis, biomarker pairs were formed by combinations of two markers. A log rank test was utilized for assessments of PFS, TTP, and OS between the treatment groups in the subpopulation defined by biomarker pairs. Kaplan-Meier curves were utilized to estimate the distribution differences between groups in the time-to-event analyses. Comparison of the response rates between the treatment groups was conducted using the Fishers exact test. Methods of Analysis for the multiple biomarker comparison models can be found in section 4.6.
The stratified log rank test and Cox proportional hazard model was utilized for assessments of PFS between the treatment groups. The Kaplan-Meier method was to be used to estimate the distribution of overall PFS for each treatment group in the biomarker population, and overall; stratified by expression level, SNP, or mutation (or covariate groups as noted above). The hazard ratio and 95% confidence interval was based on a stratified Cox's proportion hazard model with treatment as the explanatory variable. Analyses were done for the population overall and by treatment group, and each of these analyses were also stratified by the following factors if sufficient sample size existed: […]

Substance: rituximab
- Median PFS (Vc-R vs R) (PSMB1/P11A C/G + P65 % POSITIVE CYTOPLASMIC SIGNAL >90%, Excluded): 348 days
- Median PFS (Vc-R vs R) (PSMB1/P11A C/G + P65 % POSITIVE CYTOPLASMIC SIGNAL >90%, Selected): 278 days
- Median PFS (Vc-R vs R) (PSMB1/P11A C/G + P65 % POSITIVE CYTOPLASMIC SIGNAL >90%, Total): 338 days
- Median PFS (Vc − R vs R) (PSMB1/P11A C/G + PSMB9/R60H G/G, Excluded): 346 days
- Median PFS (Vc − R vs R) (PSMB1/P11A C/G + PSMB9/R60H G/G, Selected): 288 days
- Median PFS (Vc − R vs R) (PSMB1/P11A C/G + PSMB9/R60H G/G, Total): 345 days
- Median PFS (Vc-R vs R) (PSMB1/P11A G/G + PSMB5/R24C C/T, Excluded): 345 days
- Median PFS (Vc-R vs R) (PSMB1/P11A G/G + PSMB5/R24C C/T, Selected): 237.5 days
- Median PFS (Vc-R vs R) (PSMB1/P11A G/G + PSMB5/R24C C/T, Total): 345 days
- Median PFS (Vc − R vs R) (PSMB5/R24AC C/C + 20S % NUCLEAR STAINING 30-90, Excluded): 346 days
- Median PFS (Vc − R vs R) (PSMB5/R24C C/C + 20S % NUCLEAR STAINING 30-90, Selected): 281 days
- Median PFS (Vc − R vs R) (PSMB5/R24C C/C + 20S % NUCLEAR STAINING 30-90, Total): 345 days
- PFS median (PSMB5/R24C C/T): 9.3 mo
- PFS median (PSMB5/R24C C/T & CD68 POSITIVE FOLLICULAR: 0-50): 7.2 mo
- PFS median (PSMB5/R24C C/T & P65 INTENSITY CYTOPLASMIC SIGNAL <=1+): 10.4 mo
- Median PFS (Vc-R vs R) (PSMB5/R24C C/T + CD68 POSITIVE FOLLICULAR 0-50, Total): 345 days
- Median PFS (Vc-R vs R) (PSMB9/R60H A/G + 20S % POSITIVE CYTOPLASMIC SIGNAL 95-100, Excluded): 347 days
- Median PFS (Vc-R vs R) (PSMB9/R60H A/G + 20S % POSITIVE CYTOPLASMIC SIGNAL 95-100, Selected): 273 days
- Median PFS (Vc-R vs R) (PSMB9/R60H A/G + 20S % POSITIVE CYTOPLASMIC SIGNAL 95-100, Total): 345 days
- Median PFS (Vc − R vs R) (PSMB9/R60H A/G + CD68 OVERALL POSITIVE 0-50, Excluded): 349 days
- Median PFS (Vc − R vs R) (PSMB9/R60H A/G + CD68 OVERALL POSITIVE 0-50, Selected): 273 days
- Median PFS (Vc − R vs R) (PSMB9/R60H A/G + CD68 OVERALL POSITIVE 0-50, Total): 345 days
- Median PFS (Vc-R vs R) (PSMB9/R60H A/G + CD68 POSITIVE FOLLICULAR 0-50, Excluded): 349 days
- Median PFS (Vc-R vs R) (PSMB9/R60H A/G + CD68 POSITIVE FOLLICULAR 0-50, Selected): 273 days
- Median PFS (Vc-R vs R) (PSMB9/R60H A/G + CD68 POSITIVE FOLLICULAR 0-50, Total): 345 days
- PFS median (PSMB9/R60H G/G & P65 % NUCLEAR STAINING: >0): 9.5 mo
- Median PFS (Vc − R vs R) (PSMB9/R60H G/G + 20S % NUCLEAR STAINING 30-90, Excluded): 345 days
- Median PFS (Vc-R vs R) (PSMB9/R60H G/G + 20S % NUCLEAR STAINING 30-90, Selected): 280 days
- Median PFS (Vc − R vs R) (PSMB9/R60H G/G + 20S % NUCLEAR STAINING 30-90, Total): 345 days
- PFS median (Prior RX: 1 & CD68 POSITIVE FOLLICULAR: 0-50): 9.3 mo
- PFS median (Prior Ritutux NO & CD68 POSITIVE FOLLICULAR: 0-50): 9.2 mo
- PFS median (Race Group OTHER & 20S % NUCLEAR STAINING: >20): 3.8 mo
- Median PFS (Vc-R vs R) (SEX MALE + 20S % NUCLEAR STAINING 30-90, Excluded): 357 days
- Median PFS (Vc-R vs R) (SEX MALE + 20S % NUCLEAR STAINING 30-90, Selected): 235 days
- Median PFS (Vc-R vs R) (SEX MALE + 20S % NUCLEAR STAINING 30-90, Total): 345 days
- Median PFS (Vc − R vs R) (SEX MALE + P65 % POSITIVE CYTOPLASMIC SIGNAL >90%, Excluded): 375 days
- Median PFS (Vc − R vs R) (SEX MALE + P65 % POSITIVE CYTOPLASMIC SIGNAL >90%, Selected): 271 days
- Median PFS (Vc − R vs R) (SEX MALE + P65 % POSITIVE CYTOPLASMIC SIGNAL >90%, Total): 345 days
- Median PFS (Vc-R vs R) (Selected: 20S % NUCLEAR STAINING 30-90 and P65 % POSITIVE CYTOPLASMIC SIGNAL >90%): 277 days
- Median PFS (Vc-R vs R) (Selected: AGEGRP <=65 and CD68 OVERALL POSITIVE 0-50): 279 days
- Median PFS (Vc-R vs R) (Selected: AGEGRP <=65 and P65 % POSITIVE CYTOPLASMIC SIGNAL >90%): 277 days
- Median PFS (Vc-R vs R) (Selected: CD68 OVERALL POSITIVE 0-50 and P65 % POSITIVE C[…] >90%): 279 days
- Median PFS (Vc-R vs R) (Selected: FLIPI High and P65 % POSITIVE CYTOPLASMIC SIGNAL >90%): 212 days
- Median PFS (Vc-R vs R) (Selected: PRITUX NO and P65 % NUCLEAR STAINING 0): 287 days
- Median PFS (Vc-R vs R) (Selected: PSMB1/P11A C/G and ANNARBOR >=III): 275 days
- Median PFS (Vc-R vs R) (Selected: PSMB1/P11A C/G and P65 % NUCLEAR STAINING 0): 279 days
- PFS median (Sex MALE & 20S % NUCLEAR STAINING: >20): 7.7 mo
- Median PFS (Vc-R vs R) (TLAST >1 year + CD68 POSITIVE FOLLICULAR 0-50, Excluded): 288 days
- Median PFS (Vc-R vs R) (TLAST >1 year + CD68 POSITIVE FOLLICULAR 0-50, Selected): 357 days
- Median PFS (Vc-R vs R) (TLAST >1 year + CD68 POSITIVE FOLLICULAR 0-50, Total): 346 days
- Median PFS (Vc − R vs R) (TLAST >1 year + P65 % POSITIVE CYTOPLASMIC SIGNAL >90%, Excluded): 280 days
- Median PFS (Vc − R vs R) (TLAST >1 year + P65 % POSITIVE CYTOPLASMIC SIGNAL >90%, Selected): 357 days
- Median PFS (Vc − R vs R) (TLAST >1 year + P65 % POSITIVE CYTOPLASMIC SIGNAL >90%, Total): 345 days
- PFS median (Total biomarker evaluable, N = 356): 11.3 months
- Median PFS (Vc-R vs R) (Total: 20S % NUCLEAR STAINING 30-90 and P65 % POSITIVE CYTOPLASMIC SIGNAL >90%): 345 days
- Median PFS (Vc-R vs R) (Total: AGEGRP <=65 and CD68 OVERALL POSITIVE 0-50): 345 days
- Median PFS (Vc-R vs R) (Total: AGEGRP <=65 and P65 % POSITIVE CYTOPLASMIC SIGNAL >90%): 345 days
- Median PFS (Vc-R vs R) (Total: CD68 OVERALL POSITIVE 0-50 and P65 % POSITIVE C[…] >90%): 345 days
- Median PFS (Vc-R vs R) (Total: FLIPI High and P65 % POSITIVE CYTOPLASMIC SIGNAL >90%): 345 days
- Median PFS (Vc-R vs R) (Total: PRITUX NO and P65 % NUCLEAR STAINING 0): 345 days
- Median PFS (Vc-R vs R) (Total: PSMB1/P11A C/G and ANNARBOR >=III): 345 days
- Median PFS (Vc-R vs R) (Total: PSMB1/P11A C/G and P65 % NUCLEAR STAINING 0): 338 days
- PFS (confirmation cohort 1 (excludes China; n=106), biomarker positive): 9.5 months
- median PFS (confirmation cohort 2 (includes China subjects and subjects with missing data), biomarker positive): 9.5 months
- PFS (discovery cohort, CD68 Low and PSMB P11A): 8.5 months
- median PFS (subjects with PSMB1 P11A (C/G)): 9.5 months
- median PFS (subjects with higher CD68 expression): 16.2 months
- median PFS (subjects with low CD68 (0-50)): 9.3 months
